Patent US11845760B2, “PRMT5 inhibitors” (AMGEN INC., priority 2020, dated 2023)
Where two headings read alike, the source gives them in different places.

Legend:
HCT116 MTAP null cells = assay: HCT116 MTAP null cell line proliferation (CellTiter-Glo cell viability, 6 days); assay type: cell-based; conditions: HCT116 MTAP null cells, 6 days of treatment, CellTiter-Glo cell viability, read-out: HCT-116 MTAP null IC50
Method in brief: (§1)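 Viability by CellTiter-Glo after 6 days' drug exposure in wild-type HCT116 and its MTAP-null knockout, with DMSO-only control. Dosing used either 1:3 steps (top 1 or 10 μM) or 22 points in 1:2 steps (top 10 or 50 μM). IC50 taken where the fitted curve crosses 50% of control.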

HCT116 WT cells = assay: HCT116 WT cell line proliferation (CellTiter-Glo cell viability, 6 days); assay type: cell-based; conditions: HCT116 WT (parent) cells, 6 days of treatment, CellTiter-Glo cell viability, read-out: HCT-116 WT IC50
Method in brief: as §1

IC50 (HCT116 MTAP null cells)	IC50 (HCT116 WT cells)	IC50 (HCT116 MTAP null cells; HCT116-MTAP null, 144 h)	IC50 (HCT116 WT cells; Homo sapiens, HCT-116, 144 h)	SMILES
117 nM	6.17 µM	–	–	Nc1nc2cc(F)c(C(=O)N3CCOCC3c3ccc(F)c(C(F)(F)F)c3)cc2c2c1COC2 (racemic) [Example 342, (4-amino-7-fluoro-1,3-dihydrofuro[3,4-c]quinolin-8-yl)((3R)-3-(4-fluoro-3-(trifluoromethyl)phenyl)-4-morpholinyl)methanone and (4-amino-7-fluoro-1,3-dihydrofuro[3,4-c]quinolin-8-yl)((3S)-3-(4-fluoro-3-(trifluoromethyl)phenyl)-4-morpholinyl)methanone]
–	–	308 nM	16.2 µM	C[C@H]1OCc2c1c(N)nc1ccc(C(=O)N3CCOC[C@H]3c3ccc(C(F)(F)F)cn3)cc21 (racemic) [Example 343, ((3R)-4-amino-3-methyl-1,3-dihydrofuro[3,4-c]quinolin-8-yl)((3R)-3-(5-(trifluoromethyl)-2-pyridinyl)-4-morpholinyl)methanone and ((3R)-4-amino-3-methyl-1,3-dihydrofuro[3,4-c]quinolin-8-yl)((3S)-3-(5-(trifluoromethyl)-2-pyridinyl)-4-morpholinyl)methanone]
–	–	58 nM	1.41 µM	Nc1nc2cc(Cl)c(C(=O)N3CCOCC3c3ccc(C(F)(F)F)cn3)cc2c2c1COC2 (racemic) [Example 344, (4-amino-7-chloro-1,3-dihydrofuro[3,4-c]quinolin-8-yl)((3R)-3-(5-(trifluoromethyl)-2-pyridinyl)-4-morpholinyl)methanone and (4-amino-7-chloro-1,3-dihydrofuro[3,4-c]quinolin-8-yl)((3S)-3-(5-(trifluoromethyl)-2-pyridinyl)-4-morpholinyl)methanone]
–	–	346 nM	19.1 µM	Nc1nc2cnc(C(=O)N3CCOCC3c3ccc(F)c(OC(F)(F)F)c3)cc2c2c1COC2 (racemic) [Example 345, (4-amino-1,3-dihydrofuro[3,4-c][1,7]naphthyridin-8-yl)((3R)-3-(4-fluoro-3-(trifluoromethoxy)phenyl)-4-morpholinyl)methanone and (4-amino-1,3-dihydrofuro[3,4-c][1,7]naphthyridin-8-yl)((3S)-3-(4-fluoro-3-(trifluoromethoxy)phenyl)-4-morpholinyl)methanone]
–	–	62 nM	1.95 µM	Nc1nc2cc(Cl)c(C(=O)N3CCOCC3c3ccc(F)c(OC(F)(F)F)c3)cc2c2c1COC2 (racemic) [Example 346, (4-amino-7-chloro-1,3-dihydrofuro[3,4-c]quinolin-8-yl)((3R)-3-(4-fluoro-3-(trifluoromethoxy)phenyl)-4-morpholinyl)methanone and (4-amino-7-chloro-1,3-dihydrofuro[3,4-c]quinolin-8-yl)((3S)-3-(4-fluoro-3-(trifluoromethoxy)phenyl)-4-morpholinyl)methanone]
–	–	325 nM	4.7 µM	Nc1nc2cc(F)c(C(=O)N3CCOCC3c3ccc(F)c(OC(F)(F)F)c3)cc2c2c1COC2 (racemic) [Example 347, (4-amino-7-fluoro-1,3-dihydrofuro[3,4-c]quinolin-8-yl)((3R)-3-(4-fluoro-3-(trifluoromethoxy)phenyl)-4-morpholinyl)methanone and (4-amino-7-fluoro-1,3-dihydrofuro[3,4-c]quinolin-8-yl)((3S)-3-(4-fluoro-3-(trifluoromethoxy)phenyl)-4-morpholinyl)methanone]
–	–	784 nM	13 µM	Nc1nc2ccc(C(=O)N3CCOCC3c3ccc(F)c(C(F)(F)F)c3)cc2c2c1COC2 (racemic) [Example 348, (4-amino-1,3-dihydrofuro[3,4-c]quinolin-8-yl)((3R)-3-(4-fluoro-3-(trifluoromethyl)phenyl)-4-morpholinyl)methanone and (4-amino-1,3-dihydrofuro[3,4-c]quinolin-8-yl)((3S)-3-(4-fluoro-3-(trifluoromethyl)phenyl)-4-morpholinyl)methanone]
505 nM	20.8 µM	–	–	Nc1nc2cnc(C(=O)N3CCOCC3c3ccc(F)c(C(F)(F)F)c3)cc2c2c1COC2 (racemic) [Example 349, (4-amino-1,3-dihydrofuro[3,4-c][1,7]naphthyridin-8-yl)((3R)-3-(4-fluoro-3-(trifluoromethyl)phenyl)-4-morpholinyl)methanone and (4-amino-1,3-dihydrofuro[3,4-c][1,7]naphthyridin-8-yl)((3S)-3-(4-fluoro-3-(trifluoromethyl)phenyl)-4-morpholinyl)methanone]
107 nM	2.89 µM	–	–	Nc1nc2cc(Cl)c(C(=O)N3CCOCC3c3ccc(F)c(C(F)(F)F)c3)cc2c2c1COC2 (racemic) [Example 350, (4-amino-7-chloro-1,3-dihydrofuro[3,4-c]quinolin-8-yl)((3R)-3-(4-fluoro-3-(trifluoromethyl)phenyl)-4-morpholinyl)methanone and (4-amino-7-chloro-1,3-dihydrofuro[3,4-c]quinolin-8-yl)((3S)-3-(4-fluoro-3-(trifluoromethyl)phenyl)-4-morpholinyl)methanone]
–	–	129 nM	6 µM	Nc1nc2cc(F)c(C(=O)N3CCOCC3c3ccc(C(F)(F)F)cn3)cc2c2c1COC2 (racemic) [Example 351, (4-amino-7-fluoro-1,3-dihydrofuro[3,4-c]quinolin-8-yl)((3R)-3-(5-(trifluoromethyl)-2-pyridinyl)-4-morpholinyl)methanone and (4-amino-7-fluoro-1,3-dihydrofuro[3,4-c]quinolin-8-yl)((3S)-3-(5-(trifluoromethyl)-2-pyridinyl)-4-morpholinyl)methanone]
717 nM	20.7 µM	–	–	Nc1nc2cc(F)c(C(=O)N3CCOCC3c3ccnc(C(F)(F)F)c3)cc2c2c1COC2 (racemic) [Example 352, (4-amino-7-fluoro-1,3-dihydrofuro[3,4-c]quinolin-8-yl)((3R)-3-(2-(trifluoromethyl)-4-pyridinyl)-4-morpholinyl)methanone and (4-amino-7-fluoro-1,3-dihydrofuro[3,4-c]quinolin-8-yl)((3S)-3-(2-(trifluoromethyl)-4-pyridinyl)-4-morpholinyl)methanone]
234 nM	6.89 µM	–	–	Nc1nc2cc(Cl)c(C(=O)N3CCOCC3c3ccnc(C(F)(F)F)c3)cc2c2c1COC2 (racemic) [Example 353, (4-amino-7-chloro-1,3-dihydrofuro[3,4-c]quinolin-8-yl)((3R)-3-(2-(trifluoromethyl)-4-pyridinyl)-4-morpholinyl)methanone and (4-amino-7-chloro-1,3-dihydrofuro[3,4-c]quinolin-8-yl)((3S)-3-(2-(trifluoromethyl)-4-pyridinyl)-4-morpholinyl)methanone]
–	–	487 nM	> 10 µM	C[C@H]1OCc2c1c(N)nc1ccc(C(=O)N3CCOC[C@@H]3c3ccnc(C(F)(F)F)c3)cc21 (racemic) [Example 354, ((3R)-4-amino-3-methyl-1,3-dihydrofuro[3,4-c]quinolin-8-yl)((3R)-3-(2-(trifluoromethyl)-4-pyridinyl)-4-morpholinyl)methanone and ((3R)-4-amino-3-methyl-1,3-dihydrofuro[3,4-c]quinolin-8-yl)((3S)-3-(2-(trifluoromethyl)-4-pyridinyl)-4-morpholinyl)methanone]
–	–	4060 nM	> 10 µM	C[C@@H]1OCc2c1c(N)nc1cnc(C(=O)N3CCOC[C@H]3c3ccc(F)c(C(F)(F)F)c3)cc21 (racemic) [Example 355, ((3S)-4-amino-3-methyl-1,3-dihydrofuro[3,4-c][1,7]naphthyridin-8-yl)((3R)-3-(4-fluoro-3-(trifluoromethyl)phenyl)-4-morpholinyl)methanone and ((3S)-4-amino-3-methyl-1,3-dihydrofuro[3,4-c][1,7]naphthyridin-8-yl)((3S)-3-(4-fluoro-3-(trifluoromethyl)phenyl)-4-morpholinyl)methanone]
–	–	257 nM	> 10 µM	C[C@H]1OCc2c1c(N)nc1cnc(C(=O)N3CCOC[C@H]3c3ccc(F)c(C(F)(F)F)c3)cc21 (racemic) [Example 356, ((3R)-4-amino-3-methyl-1,3-dihydrofuro[3,4-c][1,7]naphthyridin-8-yl)((3R)-3-(4-fluoro-3-(trifluoromethyl)phenyl)-4-morpholinyl)methanone and ((3R)-4-amino-3-methyl-1,3-dihydrofuro[3,4-c][1,7]naphthyridin-8-yl)((3S)-3-(4-fluoro-3-(trifluoromethyl)phenyl)-4-morpholinyl)methanone]
–	–	175 nM	9.39 µM	C[C@H]1OCc2c1c(N)nc1cnc(C(=O)N3CCOC[C@H]3c3ccc(C(F)(F)F)cn3)cc21 (racemic) [Example 357, ((3R)-4-amino-3-methyl-1,3-dihydrofuro[3,4-c][1,7]naphthyridin-8-yl)((3R)-3-(5-(trifluoromethyl)-2-pyridinyl)-4-morpholinyl)methanone and ((3R)-4-amino-3-methyl-1,3-dihydrofuro[3,4-c][1,7]naphthyridin-8-yl)((3S)-3-(5-(trifluoromethyl)-2-pyridinyl)-4-morpholinyl)methanone]
–	–	313 nM	14 µM	C[C@H]1OCc2c1c(N)nc1cnc(C(=O)N3CCOC[C@H]3c3ccc(F)c(OC(F)(F)F)c3)cc21 (racemic) [Example 358, ((3R)-4-amino-3-methyl-1,3-dihydrofuro[3,4-c][1,7]naphthyridin-8-yl)((3R)-3-(4-fluoro-3-(trifluoromethoxy)phenyl)-4-morpholinyl)methanone and ((3R)-4-amino-3-methyl-1,3-dihydrofuro[3,4-c][1,7]naphthyridin-8-yl)((3S)-3-(4-fluoro-3-(trifluoromethoxy)phenyl)-4-morpholinyl)methanone]
